{
  "source": "patent US10251865B2",
  "about": "“Method of activating regulatory T cells with alpha-2B adrenergic receptor agonists” (Allergan, Inc., priority 2010, dated 2019)",
  "tested_on": "EAAU rats",
  "assay": "Experimental autoimmune anterior uveitis (EAAU) in rats",
  "type": "in vivo, rat",
  "procedure": "Male Lewis rats (180-200 g) were immunized by a single left hind-footpad injection with 150, μg (in 100 μL) of purified MAA complex from bovine eye. MAA proteins were suspended in phosphate-buffered saline (PBS, pH7.2) and emulsified (1:1 v/v) in complete Freund's adjuvant (CFA, VWR Scientific) containing 1 μg/100 μl of Pertussis Toxin (PTx) emulsion mixture. Control animals were injected with PBS emulsified with CFA and PTx.\nAssessment of intraocular inflammation was conducted starting day 7 after immunization, Animals were examined every other day between day 7 and 19 post-immunization for clinical signs and symptoms of uveitis using slit lamp microscopy. Aqueous humor was collected to evaluate the number of inflammatory cells and protein levels. Cell counts were done with 10 ul with a hemocytometer under the light microscope. Protein concentration was measured with a Protein assay solution from Bio-Rad, using BSA as the protein standard. Pro-inflammatory cytokine and chemokine levels were measured on Luminex (Biosource-Invitrogen, Carlsbad, Calif.). Blood, spleen, and eyes were harvested on days 11, 14, and 19 to determine blood leukocyte differentiation, splenic T cell activation status via Flow cytometry, as well as histopathology.",
  "data": [
    {"smiles": "CCC1=CC(Cc2c[nH]cn2)CCC1", "note": "(stereo not drawn) [Compound B]", "values": [
      {"measurement": "anterior inflammation", "setting": "1 mg/kg/day from days 1-18 or days 7-18 following EAAU induction (3 days oral TID then osmotic minipump)", "value": "effective in partially abrogating"},
      {"measurement": "CD4+ T cell population in the spleen", "setting": "EAAU rats", "value": "normalized"},
      {"measurement": "lymphocyte populations in the blood", "setting": "EAAU rats", "value": "normalized"},
      {"measurement": "neutrophil cell counts in the blood", "setting": "EAAU rats", "value": "decreased"},
      {"measurement": "clinical scores of anterior uveitis", "setting": "EAAU rats, FIG. 8", "value": "decreased"},
      {"measurement": "inflammatory cell numbers in the aqueous humor", "setting": "EAAU rats, FIG. 8", "value": "decreased"}
    ]}
  ]
}
